“Also recorded” adds a separate entry of the source.
Tests used:
NT2 aggregates = experiment: Western blot of neuronal markers in RA-differentiated NT2 aggregates; format: cell-based, human
Procedure: (§1) FIG. 5. Expression of neuronal markers in RA differentiated NT2 aggregates. NT2 cells were pre-aggregated by RA at concentration (10^−7 to 10^−5 M) for 14 days and replated onto PDL/LAM coated plates for two days. As control experiments, NT2 cells were plated at 2×10^5 cells/ml as monolayer cultures and differentiated with RA (10^−7 to 10^−5 M) for a total of 16 days. Total proteins were extracted and Western blot analysis was performed using antibodies specific against phosphorylated NF-M (NF-M-P; upper panel) and synapsin I (lower panel).
(§2) Cells were washed twice with ice-cold PBS followed by a wash with ice-cold PBS supplemented with 1 mM sodium orthovanadate (NaOV; SIGMA, St. Louis, Mo., USA). Cells were then lysed with lysis buffer (50 mM Tris.Cl at pH8, 150 mM NaCl, 1% TX, 1×aprotinin; SIGMA, St. Louis, Mo., USA, 1 mM PMSF; GIBCO, Palo Alto, Calif., USA and 1 mM NaOV) at 4° C. for 15 minutes. Lysates were collected and centrifuged to remove cell debris. Protein assays were performed with Bio-Rad Protein Assay Kit based on the Bradford dye-binding procedure (BIO-RAD, Hercules, Calif., USA). Protein (typically 10 μg) were separated by SDS-PAGE and then electro-transferred to nitrocellulose membrane (MSI, Westborough, Mass., USA). After blocking at room temperature for 1 hr using TBS-Tween containing 5% non-fat milk, membranes were incubated overnight at 4° C. with primary antibodies in TBS-Tween containing 5% non-fat milk. Membranes were then incubated with horseradish peroxidase conjugated secondary antibodies (1:2000 dilution; AMERSHAM, Arlington Heights, Ill., USA) for 1 hour at room temperature. After three washes with TBS-Tween, immunoreactive bands were detected using ECL kit (AMERSHAM, Arlington Heights, Ill., USA).
To study whether the high concentrations of RA required for inducing neuronal differentiation of NT2 cells could be lowered under the condition of cell aggregation, we exposed the NT2 aggregates to reduced concentration of RA (0.1 to 10 μM). Following treatment of NT2 aggregates with RA for 14 days, these cells were plated onto PDL/LAM coated plates in RA-free medium, and total protein samples were prepared 2 days later. As control, total protein samples were extracted from monolayer NT2 cultures treated with 16 days of RA (0.1 to 10 μM).

monolayer NT2 cells = experiment: Western blot of neuronal markers in RA-treated monolayer NT2 cultures; format: cell-based, human; details: RA 0.1 to 10 μM for 16 days
Procedure: as §1
as §2, with “Mass., USA). […] After three” for “Mass., USA). After blocking at room temperature for 1 hr using TBS-Tween containing 5% non-fat milk, membranes were incubated overnight at 4° C. with primary antibodies in TBS-Tween containing 5% non-fat milk. Membranes were then incubated with horseradish peroxidase conjugated secondary antibodies (1:2000 dilution; AMERSHAM, Arlington Heights, Ill., USA) for 1 hour at room temperature. After three”, “Ill., USA). […]” for “Ill., USA).”

NT2 cells [1] = experiment: RA-induced neuronal differentiation of NT2 cell aggregates (phase contrast morphology); format: cell-based, human; details: for number of neurons that could be prepared: NT2 aggregates
Procedure: NT2 cells were cultured as previously described (Pleasure, S. J. et al., 1992, J. Neurosci. 12:1802-1815). Briefly, cells were maintained in OptiMEMI-reduced serum medium (GIBCO, Palo Alto, Calif., USA) supplemented with 5% fetal bovine serum (FBS; GIBCO, Palo Alto, Calif., USA). When NT2 cells were differentiated by the standard protocol, NT2 cells were seeded at 2×10^6 cells per 75 cm^2 in Dulbecco's Modified Eagle's medium (high glucose formulation) (DMEM-HG; GIBCO, Palo Alto, Calif., USA) and were treated with a final concentration of 10 μM all-trans RA (SIGMA, St. Louis, Mo., USA). In the cell aggregation studies, cells were dislodged by trypsinization and were plated at 1×10^5 cells per ml into a 85-mm bacteriological grade petri dish in DMEM-HG supplemented 10% FBS. After incubation overnight at 37° C. in a 5% CO2 incubator, the aggregates were supplemented with a final concentration of 10 μM all-trans RA. The medium was replaced every two days. After 14 days of RA treatment, aggregates were plated onto tissue culture grade petri dish pre-coated with 10 μg/ml poly-D-lysine (PDL; SIGMA, St. Louis, Mo., USA), 10 μg/ml mouse laminin (LAM; GIBCO, Palo Alto, Calif., USA) and 0.1% gelatin (SIGMA, St. Louis, Mo., USA) in Dulbecco's Phosphate buffered saline (D-PBS; GIBCO, Palo Alto, Calif., USA). Following overnight incubation, aggregates were then cultured in DMEM-HG with 10% FBS supplemented with 1 μM cytosine D-arabinofuranoside (arac; SIGMA, St. Louis, Mo., USA) and 10 μM uridine (SIGMA, St. Louis, Mo., USA). After 3 days of incubation, neurons were detached by tapping gently on the side of the tissue culture plate, or by brief trypsinization, and replated on to a new pre-coated tissue culture plate. Incubation was continued in the presence of araC and uridine for another 4 days. Neurons obtained could be kept in DMEM supplemented with 10% FBS for more than 3 weeks.
To examine the effect of cell aggregation on RA-induced neuronal differentiation, NT2 cells were pre-aggregated as described above. After 14 days of RA treatment, aggregates were plated on PDL and LAM (PDL/LAM) coated plates. […] Phase bright neuron-like cells with long extended neurites continued to migrate out from the NT2 aggregates. At day 3 after replating, these cells grew on the surface of large-flattened cells (FIG. 1). […] However, neuron-like cells were subsequently overwhelmed by both undifferentiated NT2 cells and the differentiated large-flattened cells (Pleasure, S. J. et al., 1992, J. Neurosci. 12:1802-1815).
It is possible that the sustained requirement of RA for the neuronal differentiation of NT2 is indeed due to the lack of cell-cell interaction. To examine this possibility, NT2 cells were maintained as aggregates in bacteriological culture dish for 14 days and RA treatment was given only during the first few days of aggregation (1 to 5 days).

NT2 cells [2] = details: standard protocol for differentiation; cited from earlier work
NT2 cells [3] = experiment: Indirect immunofluorescent analysis of NT2 neurons differentiated by cell aggregation; format: cell-based, human; details: RA 5 μM for 14 days, two days after replating in RA-free medium
Procedure: NT2 cells were aggregated and differentiated by RA (5 μM) for 14 days. Two days after replating in RA-free medium, differentiated NT2 cells were fixed and stained with the antibodies specific against TH (upper panel), and phosphorylated NF-M (lower panel). Scale bar, 50 μm.
For immunofluorescent analysis, control or differentiated aggregates cultures were fixed with 4% paraformaldehyde (FLUKA, Hauppauge, N.Y., USA) in PBS. After blocking with 4% normal serum (NS; VECTOR LAB, Burlingame, Calif., USA) in PBS containing 0.4% Triton-X (TX; BOERINGER MANNEHEIM, Mannheim, Germany), and 1% bovine serum albumin (BSA; SIGMA, St. Louis, Mo., USA), aggregates were incubated overnight at 4° C. with primary antibodies diluted in antibody diluent (1% NS, 0.4% TX and 1% BSA). Incubation with secondary antibodies was performed at room temperature for at least 2 hours. Cells were visualized under fluorescence microscope (ZEISS, Jena, Germany). […]
In order to verify whether the phase-bright cells obtained following cell aggregation were neurons, immunocytochemical analysis was performed. High-molecular weight neurofilament proteins (200 kDa) were detected in the neurites of the neurons (FIG. 2). […] In addition, substance P (SP) was detected in both the cell bodies and the neurites of the neurons (FIG. 2). […]

[4] = NT2 aggregates, RA 0.1 to 10 μM

With CC1=C(/C=C/C(C)=C/C=C/C(C)=C/C(=O)O)C(C)(C)CCC1 [RA, all-trans retinoic acid] the “expression level of phosphorylated NF-M proteins, aggregates versus monolayer” value (NT2 aggregates; NT2 aggregates at 0.1 μM RA versus monolayer NT2 cells at 10 μM RA) was “comparable expression level”, the “expression level of phosphorylated NF-M proteins versus RA concentration” value (NT2 aggregates; [4]) was “elevated with increased concentration of RA” and the “synapsin I protein expression” value (NT2 aggregates; [4]) was “High level of synapsin I protein expression was detected”. For the same compound, the “expression of phosphorylated NF-M proteins” value (NT2 aggregates; NT2 aggregates, RA 0.1 to 10 μM for 14 days, 2 days on PDL/LAM) was “could induce the expression of phosphorylated NF-M proteins”, the “expression of phosphorylated NF-M” value (monolayer NT2 cells) was “expressed phosphorylated NF-M only at higher concentrations of RA (1 or 10 μM)” and the “formation of neurons after brief RA treatment” value (NT2 cells [1]; 2 to 3 days of RA treatment (10 μM), cells maintained as aggregates for 14 days) was “Neurons were observed”. For the same compound, the “neurite outgrowth from NT2 aggregates” value (NT2 cells [1]; 14 days of RA treatment (10 μM), plated on PDL/LAM, overnight incubation without RA) was “Neurite outgrowth was initiated”, the “number of neurons that could be prepared” value (NT2 cells [1]; 0.1 μM RA) was “almost no neurons were observed; also recorded: did not result in cells that resembled neurons” and the “number of neurons that could be prepared” value (NT2 cells [1]; 1 μM RA) was “only a few neurons could be observed”. The “time to formation of neurons” value (NT2 cells [1]; NT2 cells treated with RA as aggregates in bacteriological plates) was ≤ 16 days, the “extension of neurites from NT2 cells” value (NT2 cells [1]; RA for only 12 days, 2 days after plating on PDL/LAM) was “extension of neurites from NT2 cells was observed” and the “neuritic outgrowth of RA-treated aggregates” value (NT2 cells [1]; cell aggregation period less than 12 days) was “did not result in observable neuritic outgrowth”. The “time until neuron-like cells observed after RA treatment” value (NT2 cells [2]) was “about five weeks”, the “expression of neuronal specific proteins (NF200, synapsin I, substance P, GABA)” value (NT2 cells [3]) was “expressed neuronal specific proteins” and the “expression of tyrosine hydroxylase (TH)” value (NT2 cells [3]) was “expressed tyrosine hydroxylase (TH)”.

Source: US20030017590A1, “PRODUCTION OF HUMAN CNS NEURONS FROM EMBRYONAL CARCINOMA CELLS USING CELL AGGREGATION METHOD” (priority 1999, published 2003)
